These results are taken from patent US7491844B2, “Therapeutic cyclopentane derivatives” (Allergan, Inc., priority 2006, dated 2009).

One experiment addresses T1, EP4 receptors (Homo sapiens, UniProt P35408).
T1 construct: expressed in transfected cells; host or cells: HEK-293 (plasma membrane fraction)
Nature of the experiment: Radioligand binding, [3H]PGE2, HEK-293 cells expressing EP4. The protocol:
HEK-293 cells stably expressing the human or feline FP receptor, or EP1, EP2, or EP4 receptors were washed with TME buffer, scraped from the bottom of the flasks, and homogenized for 30 sec using a Brinkman PT 10/35 polytron. TME buffer was added to achieve a final 40 ml volume in the centrifuge tubes (the composition of TME is 100 mM TRIS base, 20 mM MgCl2, […]; 10N HCl is added to achieve a pH of 7.4).
The cell homogenate was centrifuged at 19000 r.p.m. for 20 min at 4° C. using a Beckman Ti-60 rotor. The resultant pellet was resuspended in TME buffer to give a final 1 mg/ml protein concentration, as determined by Biorad assay. Radioligand binding competition assays vs. [^3H-]17-phenyl PGF2 ? (5 nM) were performed in a 100 μl volume for 60 min. Binding reactions were started by adding plasma membrane fraction. The reaction was terminated by the addition of 4 ml ice-cold TRIS-HCl buffer and rapid filtration through glass fiber GF/B filters using a Brandel cell harvester. The filters were washed 3 times with ice-cold buffer and oven dried for one hour.
[^3H-] PGE2 (specific activity 180 Ci mmol) was used as the radioligand for EP receptors. [^3H] 17-phenyl PGF2 ? was employed for FP receptor binding studies. […] 17-phenyl PGF2 ? and non-specific binding determined with 10^−5M of unlabeled PGE2, or 17-phenyl PGF2 ? , according to receptor subtype studied.

A further experiment has as its target EP2 (Homo sapiens, UniProt P43116). Nature of the experiment: Competition radioligand binding, [3H]PGE2, HEK 293 cells expressing EP2. On the set-up: expressed in transfected cells; host or cells: HEK 293 (membranes or whole cells). How it is done: Competition binding experiments were performed in a medium containing Hank's balanced salt solution, Hepes 20 mM, pH 7.3, membranes (˜60 μg protein) or 2×10^5 cells from HEK 293 cells stably expressing human EP2 receptors, [^3H]PGE2 (10 nM) and various concentrations of test compounds in a total volume of 300 μl. Reaction mixtures were incubated at 23° C. for 60 min, and were filtered over Whatman GF/B filters under vacuum. Filters were washed three times with 5 ml ice-cold buffer containing 50 mM Tris/HCl (pH 7.3). Non-specific binding was estimated in the presence of excess unlabeled PGE2 (10 μM). Binding data fitted to the binding model for a single class of binding sites, using nonlinear regression analysis. IC50 values thus obtained were converted to Ki using the equation of Ki=(IC50/(1+[L]/KD) where [L] represents PGE2 concentration (10 nM) and KD the dissociation constant for [^3H]PGE2 at human EP2 receptors (40 nM). […]
The cell homogenate was centrifuged at 19000 r.p.m. for 20 min at 4° C. using a Beckman Ti-60 rotor. The resultant pellet was resuspended in TME buffer to give a final 1 mg/ml protein concentration, as determined by Biorad assay. […]
[^3H-] […] 17-phenyl PGF2 ? and non-specific binding determined with 10^−5M of unlabeled PGE2, or 17-phenyl PGF2 ? , according to receptor subtype studied.

The next experiment concerns the target T2, hEP2/Gqs5 (Homo sapiens, UniProt P43116).
T2 construct: expressed in transfected cells; host or cells: HEK-293(EBNA)
Nature of the experiment: FLIPR calcium signal, HEK-293(EBNA) cells. The format is cell-based. The following applies: value outside the parentheses; read-out: Ca2+ Signal-EC50 (nM) EP2. The protocol: (§1) HEK-293(EBNA) cells, stably expressing one type or subtype of recombinant human prostaglandin receptors (prostaglandin receptors expressed: hDP/Gqs5; hEP1; hEP2/Gqs5; hEP3A/Gqi5; hEP4/Gqs5; hFP; hiP; hTP), were cultured in 100 mm culture dishes in high-glucose DMEM medium containing 10% fetal bovine serum, 2 mM l-glutamine, 250 ? g/ml geneticin (G418) and 200 ? g/ml hygromycin B as selection markers, and 100 units/ml penicillin G, 100 ? g/ml streptomycin and 0.25 ? g/ml amphotericin B.
(§2) Cells were seeded at a density of 5×10^4 cells per well in Biocoat® Poly-D-lysine-coated black-wall, clear-bottom 96-well plates (Becton-Dickinson) and allowed to attach overnight in an incubator at 37° C. Cells were then washed two times with HBSS-HEPES buffer (Hanks Balanced Salt Solution without bicarbonate and phenol red, 20 mM HEPES, pH 7.4) using a Denley Cellwash plate washer (Labsystems). After 45 minutes of dye-loading in the dark, using the calcium-sensitive dye Fluo-4 AM at a final concentration of 2 ? M, plates were washed four times with HBSS-HEPES buffer to remove excess dye leaving 100 ? l in each well. Plates were re-equilibrated to 37° C. for a few minutes.
(§3) Cells were excited with an Argon laser at 488 nm, and emission was measured through a 510-570 nm bandwidth emission filter (FLIPR™, Molecular Devices, Sunnyvale, Calif.). Drug solution was added in a 50 ? l volume to each well to give the desired final concentration. The peak increase in fluorescence intensity was recorded for each well. On each plate, four wells each served as negative (HBSS-HEPES buffer) and positive controls (standard agonists: BW245C (hDP); PGE2 (hEP1; hEP2/Gqs5; hEP3A/Gqi5; hEP4/Gqs5); PGF2 ? (hFP); carbacyclin (hIP); U-46619 (hTP), depending on receptor). The peak fluorescence change in each drug-containing well was then expressed relative to the controls.
(§4) Compounds were tested in a high-throughput (HTS) or concentration-response (CoRe) format. In the HTS format, forty-four compounds per plate were examined in duplicates at a concentration of 10^−5 M. To generate concentration-response curves, four compounds per plate were tested in duplicates in a concentration range between 10^−5 and 10^−11 M. The duplicate values were averaged. In either, HTS or CoRe format each compound was tested on at least 3 separate plates using cells from different passages to give an n≧3.

In the next experiment the target is T3, hIP (Homo sapiens, UniProt P43119).
T3 construct: expressed in transfected cells; host or cells: HEK-293(EBNA)
T3 sequence (P43119 whole entry): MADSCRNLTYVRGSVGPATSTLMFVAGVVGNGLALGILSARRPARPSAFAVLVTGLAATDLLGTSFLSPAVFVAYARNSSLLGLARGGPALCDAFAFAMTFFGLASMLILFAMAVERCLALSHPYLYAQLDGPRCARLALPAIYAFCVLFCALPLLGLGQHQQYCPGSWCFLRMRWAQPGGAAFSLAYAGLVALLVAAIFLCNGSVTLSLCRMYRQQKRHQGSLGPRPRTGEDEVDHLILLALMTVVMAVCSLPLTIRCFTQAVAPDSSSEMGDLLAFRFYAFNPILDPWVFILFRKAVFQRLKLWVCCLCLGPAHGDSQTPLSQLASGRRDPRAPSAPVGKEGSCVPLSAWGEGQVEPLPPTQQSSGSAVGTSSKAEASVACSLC
Put plainly: FLIPR calcium signal, HEK-293(EBNA) cells. It is filed as cell-based. How it is done:
as §1, §2, §3, §4

A further experiment concerns the target T4, hDP/Gqs5 (Homo sapiens, UniProt Q13258).
T4 construct: expressed in transfected cells; host or cells: HEK-293(EBNA)
T4 sequence (Q13258 1-359): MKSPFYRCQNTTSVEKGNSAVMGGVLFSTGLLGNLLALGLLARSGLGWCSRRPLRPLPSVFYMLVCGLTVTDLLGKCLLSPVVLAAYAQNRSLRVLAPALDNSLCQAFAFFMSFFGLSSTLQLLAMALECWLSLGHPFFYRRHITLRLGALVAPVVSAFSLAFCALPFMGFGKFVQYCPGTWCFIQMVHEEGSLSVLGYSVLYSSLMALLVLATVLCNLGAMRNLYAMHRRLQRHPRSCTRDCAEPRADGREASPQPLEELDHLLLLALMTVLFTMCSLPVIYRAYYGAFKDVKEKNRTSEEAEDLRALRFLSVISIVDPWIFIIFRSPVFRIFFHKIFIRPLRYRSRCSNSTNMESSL
Put plainly: FLIPR calcium signal, HEK-293(EBNA) cells. It is filed as cell-based. How it is done:
as §1, §2, §3, §4

The target of another experiment is T5, hEP1 (Homo sapiens, UniProt P34995).
T5 construct: expressed in transfected cells; host or cells: HEK-293(EBNA)
T5 sequence (P34995 1-402): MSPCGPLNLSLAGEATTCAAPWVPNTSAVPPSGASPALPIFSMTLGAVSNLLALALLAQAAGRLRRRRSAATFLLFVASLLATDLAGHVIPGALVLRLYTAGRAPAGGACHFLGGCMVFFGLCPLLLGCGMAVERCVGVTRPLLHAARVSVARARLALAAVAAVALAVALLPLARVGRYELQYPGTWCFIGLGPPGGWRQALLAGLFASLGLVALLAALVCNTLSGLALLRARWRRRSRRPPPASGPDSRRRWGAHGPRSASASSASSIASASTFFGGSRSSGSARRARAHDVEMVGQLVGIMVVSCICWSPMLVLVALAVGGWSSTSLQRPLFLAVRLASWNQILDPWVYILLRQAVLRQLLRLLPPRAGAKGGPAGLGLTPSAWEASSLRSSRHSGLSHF
Put plainly: FLIPR calcium signal, HEK-293(EBNA) cells. It is filed as cell-based. How it is done: as §1, §2, §3, §4

The target of the next experiment is T6, hTP (Homo sapiens, UniProt P21731).
T6 construct: expressed in transfected cells; host or cells: HEK-293(EBNA)
T6 sequence (P21731 1-343): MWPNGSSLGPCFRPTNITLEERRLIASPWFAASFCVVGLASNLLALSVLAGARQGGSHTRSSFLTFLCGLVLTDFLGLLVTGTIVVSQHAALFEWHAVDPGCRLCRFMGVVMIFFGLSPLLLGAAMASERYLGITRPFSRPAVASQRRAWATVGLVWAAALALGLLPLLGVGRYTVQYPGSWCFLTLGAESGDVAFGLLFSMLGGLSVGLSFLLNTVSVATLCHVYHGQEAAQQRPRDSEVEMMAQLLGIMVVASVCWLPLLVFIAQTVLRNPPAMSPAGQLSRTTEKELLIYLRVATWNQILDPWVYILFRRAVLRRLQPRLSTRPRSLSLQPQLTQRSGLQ
Put plainly: FLIPR calcium signal, HEK-293(EBNA) cells. The format is cell-based. The protocol:
as §1, §2, §3, §4

Another experiment deals with T7, hEP3A/Gqi5 (Homo sapiens, UniProt P43115).
T7 construct: expressed in transfected cells; host or cells: HEK-293(EBNA)
T7 sequence (P43115 1-390): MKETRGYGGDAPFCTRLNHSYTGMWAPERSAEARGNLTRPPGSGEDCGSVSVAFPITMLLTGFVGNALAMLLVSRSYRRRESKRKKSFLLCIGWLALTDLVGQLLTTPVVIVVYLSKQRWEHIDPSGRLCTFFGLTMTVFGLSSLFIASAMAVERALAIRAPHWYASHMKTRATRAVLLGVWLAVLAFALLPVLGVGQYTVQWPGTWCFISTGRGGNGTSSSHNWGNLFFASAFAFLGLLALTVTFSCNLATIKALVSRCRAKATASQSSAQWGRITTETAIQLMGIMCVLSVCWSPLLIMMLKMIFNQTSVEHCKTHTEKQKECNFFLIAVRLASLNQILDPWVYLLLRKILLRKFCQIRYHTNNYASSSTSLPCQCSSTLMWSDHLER
Put plainly: FLIPR calcium signal, HEK-293(EBNA) cells. The format is cell-based. The following applies: read-out: Ca2+ Signal-EC50 (nM) EP3. The protocol:
as §1, §2, §3, §4

For another experiment, the target named is T8, hFP (Homo sapiens, UniProt P43088).
T8 construct: expressed in transfected cells; host or cells: HEK-293(EBNA)
T8 sequence (P43088 whole entry): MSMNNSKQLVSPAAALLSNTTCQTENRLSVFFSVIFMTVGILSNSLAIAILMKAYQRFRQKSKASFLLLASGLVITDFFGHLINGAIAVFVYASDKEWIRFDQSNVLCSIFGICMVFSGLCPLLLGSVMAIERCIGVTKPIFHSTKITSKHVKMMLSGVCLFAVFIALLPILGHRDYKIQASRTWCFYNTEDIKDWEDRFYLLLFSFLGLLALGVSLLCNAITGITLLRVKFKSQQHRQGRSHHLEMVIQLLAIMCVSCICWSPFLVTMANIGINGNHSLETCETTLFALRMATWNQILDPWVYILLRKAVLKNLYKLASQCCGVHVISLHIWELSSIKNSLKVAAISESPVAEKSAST
Put plainly: FLIPR calcium signal, HEK-293(EBNA) cells. The format is cell-based. How it is done:
as §1, §2, §3, §4

A further experiment deals with T9, hEP4/Gqs5 (Homo sapiens, UniProt P35408).
T9 construct: expressed in transfected cells; host or cells: HEK-293(EBNA)
T9 sequence (P35408 whole entry): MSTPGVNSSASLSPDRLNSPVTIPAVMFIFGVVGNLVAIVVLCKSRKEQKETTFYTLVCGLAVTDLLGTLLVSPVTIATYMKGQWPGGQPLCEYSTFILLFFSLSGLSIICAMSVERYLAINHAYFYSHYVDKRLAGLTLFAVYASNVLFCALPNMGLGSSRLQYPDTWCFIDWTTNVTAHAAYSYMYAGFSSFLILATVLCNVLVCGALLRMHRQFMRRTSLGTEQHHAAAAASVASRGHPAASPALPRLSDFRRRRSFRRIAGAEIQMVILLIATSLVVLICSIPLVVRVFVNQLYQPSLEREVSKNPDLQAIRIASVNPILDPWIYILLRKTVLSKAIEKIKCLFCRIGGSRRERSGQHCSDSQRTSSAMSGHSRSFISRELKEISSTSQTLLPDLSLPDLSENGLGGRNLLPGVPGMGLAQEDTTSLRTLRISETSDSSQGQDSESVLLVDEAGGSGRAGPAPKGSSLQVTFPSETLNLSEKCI
Nature of the experiment: FLIPR calcium signal, HEK-293(EBNA) cells. The format is cell-based. The note with it: read-out: Ca2+ Signal-EC50 (nM) EP4. How it is done:
as §1, §2, §3, §4

T1 sequence (P35408 whole entry): as above
T2 sequence (P43116 whole entry): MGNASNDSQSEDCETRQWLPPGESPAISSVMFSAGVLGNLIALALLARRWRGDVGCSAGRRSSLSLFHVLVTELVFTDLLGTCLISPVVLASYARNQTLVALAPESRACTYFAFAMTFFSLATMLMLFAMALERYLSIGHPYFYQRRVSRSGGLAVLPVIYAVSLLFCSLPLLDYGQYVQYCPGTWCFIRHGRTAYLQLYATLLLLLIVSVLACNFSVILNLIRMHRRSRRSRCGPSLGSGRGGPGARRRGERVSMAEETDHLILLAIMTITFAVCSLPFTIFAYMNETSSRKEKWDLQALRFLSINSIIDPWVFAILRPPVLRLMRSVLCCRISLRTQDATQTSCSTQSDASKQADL
Sequence of EP2 (P43116 whole entry): as above

As to `CCCCCC(O)c1ccc([C@@H]2[C@@H](C/C=C\CCCC(=O)O)[C@H](Cl)C[C@H]2Cl)cc1` (some centres unmarked) [Entry 2], the values for the Ki at EP4 receptors and on EP2 were 1400 nM and 25 nM, respectively. For the same molecule, the concentration for a half-maximal effect (EC50) is 15 nM on hEP2/Gqs5 and 25 nM at hEP3A/Gqi5. Besides, the “Ca2+ Signal-EC50 (nM) IP” value on hIP is reported as “notactive”. In addition, the “Ca2+ Signal-EC50 (nM) DP” value on hDP/Gqs5 is recorded as “notactive”. The “Ca2+ Signal-EC50 (nM) EP1” value at hEP1 is listed as “notactive”. For the same molecule, the “Ca2+ Signal-EC50 (nM) TP” value at hTP is recorded as “notactive”. Also, the “Ca2+ Signal-EC50 (nM) FP” value at hFP was “notactive”.
On to `CCCCCC(O)c1ccc([C@@H]2[C@@H](C/C=C\CCCC(=O)O)[C@H](Cl)C[C@@H]2Cl)cc1` (some centres unmarked) [compound 1], for which the results for the Ki on EP4 receptors and on EP2 were 2360 nM and 504 nM, respectively. Moreover, the values for the half-maximal effective concentration (EC50) on hEP2/Gqs5, at hEP4/Gqs5 and on hEP3A/Gqi5 were 427 nM, greater than 10000 nM and 449 nM, respectively.

The term Ki denotes the dissociation constant of the complex between target and ligand, obtained from inhibition or displacement. A high value points to a looser hold on the target. Usually EC50 stands for the concentration needed to bring the measured effect to its halfway point.
